Common to all, as to type: biochemical
Assay [1] deals with T1, protease according SEQ ID No: 1 (Lederbergia lenta, UniProt P29599, R99E). Conditions: for protease activity: activity without BBA and diol = 100%. The procedure: (§1) Proteolytic activity of proteases has been measured using succinyl-Ala-Ala-Pro-Phe-p-nitroanilide (Suc-AAPF-pNA, short AAPF) as substrate, wherein pNA is cleaved from the substrate molecule by proteolytic cleavage, resulting in release of yellow color of free pNA which was quantified by measuring OD405.
T1 sequence (P29599 whole entry R99E): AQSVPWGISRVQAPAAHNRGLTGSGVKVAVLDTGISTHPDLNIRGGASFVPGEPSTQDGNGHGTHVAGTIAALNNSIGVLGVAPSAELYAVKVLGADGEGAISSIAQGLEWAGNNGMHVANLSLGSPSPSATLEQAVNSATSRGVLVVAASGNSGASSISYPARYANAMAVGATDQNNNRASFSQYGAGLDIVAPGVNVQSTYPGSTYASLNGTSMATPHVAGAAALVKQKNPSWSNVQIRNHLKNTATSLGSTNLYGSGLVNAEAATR
(§2) If not indicated otherwise, enzymatic activity was measured at 30° C.
50 mM phosphate buffer (pH 7.5), 137 μM BBA, 4.8 mM Suc-AAPF-pNA, and 16 nM protease according SEQ ID No: 1 with 135 mM diol or without diol.
The protease activity was measured in presence of the Suc-AAPF-pNA substrate and in the absence of BBA and diol, which gives the 100% value in Table B.
The protease activity was measured in presence of the Suc-AAPF-pNA substrate and BBA, which gives the stabilization of protease by BBA—see Table C-I.
The protease activity was then measured in presence of the Suc-AAPF-pNA substrate and diol (without BBA), which gives the stabilization of protease by diol—see Table C-II.
The protease activity was then measured in presence of the Suc-AAPF-pNA substrate and BBA and diol, which gives the stabilization of protease by BBA and diol—see Table C-III.

Assay [2] concerns the target T1, protease according SEQ ID No: 1. To be noted: for protease activity: 2.3% (w/w) diol, 4.4 μM 4-FPBA, 4.8 mM Suc-AAPF-pNA, 16 nM protease, pH 7.5, activity with 4-FPBA only = 100%. The procedure: as §1, §2
50 mM phosphate buffer (pH 7.5), 4.4 μM 4-FPBA, 4.8 mM Suc-AAPF-pNA, and 16 nM protease according SEQ ID No: 1 with 2.3% w/w diol or without diol.
The protease activity was measured in presence of the Suc-AAPF-pNA substrate and the 4-FPBA only, which gives the 100% value in Table A.
The protease activity was also measured in the presence of AAPF-pNA substrate, 4-FPBA and 2.3% diol.

Assay [3] has as its target protease according to SEQ ID No: 1 (Lederbergia lenta, UniProt P29599, R99E). Put plainly: Storage stability of protease at 45° C. with diol alone (proteolytic activity, Suc-AAPF-pNA). Conditions: no boron compound; for stabilization of protease by diol alone during storage (in words): storage at 45° C., 20-50% w/w diol. The procedure: as §1
To test the effect of diol alone towards the storage stability of proteases, a protease according to SEQ ID No: 1 was stored at 45° C. with varying concentrations of Propane-1,2-diol and Pentane-1,2-diol as indicated in Table B. 4% active protease according to SEQ ID No: 1 was present before storage for the assessment of its changes in proteolytic activity during storage.
Proteolytic activity was measured in the presence of 4.8 mM Sus-AAPF-pNa. As buffering system 50 mM phosphate buffer was used (pH 7.5). Before storage (time=0), the protease activity measured was set 100%.

The target of assay [4] is T1, protease according SEQ ID No: 1. Put plainly: Mixtures of diols with 4-FPBA: protease activity (Suc-AAPF-pNA). As for the experimental part:
as §1, §2
50 mM phosphate buffer (pH 7.5), 4.4 μM 4-FPBA, 4.8 mM Suc-AAPF-pNA, and 16 nM protease according SEQ ID No: 1 with one or two diols.
The protease activity was measured in presence of the Suc-AAPF-pNA substrate and 4-FPBA and one or two diols, which gives the stabilization of protease by 4-FPBA and one or two diols—see Table D.
The protease activity in presence of the Suc-AAPF-pNA substrate and 4-FPBA only is set 100%.

This note sets out measurements from patent publication US20190292494A1, “STABILIZATION OF ENZYMES IN COMPOSITIONS” (BASF SE, priority 2016, published 2019).

“Also recorded” adds a separate entry of the source. Like-named read-outs stand apart in the source and are kept apart here.

protease according to SEQ ID No: 1, sequence (P29599 whole entry R99E): as above

In assay [1] (137 μM BBA, no diol), benzene boronic acid [BBA] registered a protease activity of 66%.
Turning to `CCCC(O)CO` (centres unmarked) [Pentane-1,2-diol, pentane-1,2-diol], the “inhibitory effect towards proteolytic activity (in words)” value was “strong inhibitory effect” in assay [2] (diol added to 4-FPBA, compared to the other diols used) and “best inhibitory effect” in assay [1] (diol alone (135 mM, without BBA), of the diols tested). Further, the “stabilization of protease by diol alone during storage (in words)” value in assay [3] is recorded as “does not stabilize the protease, but rather destabilizes the protease”. Besides, in assay [1] (135 mM diol with 137 μM BBA), the “stabilization of protease by diol in the presence of BBA (in words)” value is listed as “best increasing effect on stabilization of protease; also recorded: synergistic stabilization”. The “stabilization of protease in the presence of 4-FPBA (in words)” value in assay [4] (of the diols tested, with 4-FPBA) is given as “stabilizes protease best”.
Take `OCCO` [Ethylen-1,2-glycol, ethane-1,2-diol]: the protease activity in assay [2] came out at 54%; in assay [1] (135 mM diol with 137 μM BBA), 43%; in assay [1] (135 mM diol, without BBA), 97%.
As for `CC(O)CO` (centres unmarked) [Propane-1,2-diol, propane-1,2-diol], the protease activity in assay [2] is recorded as 91%; in assay [1] (135 mM diol with 137 μM BBA), 40%; in assay [1] (135 mM diol, without BBA) it was 94%; in assay [4] (Propane-1,2-diol 120 mM, Pentane-1,2-diol 0 mM, 4.4 μM 4-FPBA, 4-FPBA only = 100%), 91%. For the same compound, the “proteolytic activity before and after storage” value in assay [3] (20% w/w diol, 1 day at 45° C.) worked out at 82%; in assay [3] (20% w/w diol, 3 days at 45° C.), 64%; in assay [3] (20% w/w diol, 7 days at 45° C.), 46%; in assay [3] (20% w/w diol, 14 days at 45° C.), 30%; in assay [3] (20% w/w diol, cero (before storage, set 100%)) it was 100%; in assay [3] (30% w/w diol, 1 day at 45° C.), 92%. Moreover, the “proteolytic activity before and after storage” value in assay [3] (30% w/w diol, 3 days at 45° C.) was found to be 80%; in assay [3] (30% w/w diol, 7 days at 45° C.), 62%; in assay [3] (30% w/w diol, 14 days at 45° C.), 47%; in assay [3] (30% w/w diol, cero (before storage, set 100%)), 100%; in assay [3] (50% w/w diol, 1 day at 45° C.), 94%; in assay [3] (50% w/w diol, 3 days at 45° C.), 92%. For the same compound, the “proteolytic activity before and after storage” value turned out to be 79% in assay [3] (50% w/w diol, 7 days at 45° C.); 66% in assay [3] (50% w/w diol, 14 days at 45° C.); 100% in assay [3] (50% w/w diol, cero (before storage, set 100%)). Besides, the “stabilization of protease by diol alone during storage (in words)” value in assay [3] was “stabilize the protease increasingly”.
